US12600696B2 (XENIOPRO GMBH, priority 2017, dated 2026)

Legend:
Assay type in all cases: cell-based
[1] = test system: TT cells (human medullary thyroid carcinoma cells); assay: alamarBlue proliferation assay with TT cells; settings: Homo sapiens, 120 h, 40 μM, relative to DMSO basis level 1.0, read-out: weighted arithmetic mean (AVEw) of normalized fluorescence intensity, activity range
Description: (§1) The antiproliferative activities of compounds falling under formula I, formula II, formula III, formula IV and formula V were investigated on cells or cell lines originating from a disorder of the myeloid cell compartment, the neuroendocrine system, the cervix, and the mucosal epithelium, as well as from the skin epithelium. To this end, HL-60 cells, TT cells, HeLa cells, CAL-27 cells and human primary epidermal keratinocytes (HPEK) were seeded into 96-well plates suitable for fluorescence assays (CORNING #3598) at following initial cell numbers: 1000 cells per well for HL-60; 9000 cells per well for TT; 2000 cells per well for HeLa, 2000 cells per well for CAL-27, 2000 cells per well for HPEK. The cells were treated with compounds at indicated final concentrations (diluted from the 1000× stock-solutions in DMSO to a final DMSO concentration of 0.1% v/v) or with the empty carrier DMSO at 0.1% v/v as control for 5 days. At day 5 after starting the treatments the cells were subjected to the alamarBlue® Proliferation Assay (Bio-Rad Serotec GmbH, BUF012B) according to the protocol of the manufacturer. The readout was taken with a multi-well plate-reader in the fluorescence mode with applying a filter for excitation at 560 nm (band width 10 nm) and for emission at 590 nm (band width 10 nm). Resveratrol (RES) treatment was included as control for growth inhibition.
(§2) The assays were performed in duplicate or more replicates of independent single experiments each containing a six-fold replicate for every condition. For every individual plate, the measured fluorescence intensity values of the conditions with compound treatment were normalized against the corresponding equally weighted arithmetic mean of the fluorescence intensity values of the six DMSO treated control wells in order to obtain the relative values to a baseline level of 1.0. The statistical calculations were performed in analogy to the luciferase assay as described above. To this end, two independent outlier analyses were performed according to the methods by Peirce and Chauvenet (Ross, Journal of Engineering Technology 2003, 1-12). Outliers confirmed by at least one of the methods were excluded from the calculations but not more than one value out of six per compound within a single experiment. The weighted arithmetic mean AVEw for each compound was calculated from the normalized values over all independent replicates of the single experiments comprising the six replicates each. The corresponding standard deviation for the weighted arithmetic mean was calculated according to the method described by Bronstein et al. (Bronstein, Semendjajew, Musiol, Mühlig, Taschenbuch der Mathematik, 5th edition 2001 (German), publisher: Verlag Harri Deutsch, Frankfurt am Main and Thun) and was combined with the Gauß′ error propagation associated with the performed calculation for the normalization. The resulting standard deviation is herein referred to as “combined standard deviation”.
TT cells were cultivated according to the protocol of the provider in F-12K medium (Fisherscientific, #11580556, or ATCC, #ATCC-30-2004) containing 10% fetal bovine serum (Fisherscientific, #15517589).
(§3) A compound is considered as a growth inhibitor of TT cells, if—at a reference concentration of 40 μM—the weighted arithmetic mean of the normalized fluorescence intensity values after addition of the corresponding combined standard deviation amounts to 0.9 or lower, in particular to 0.8 or lower, 0.7 or lower, 0.6 or lower, 0.4 or lower, and 0.2 or lower, relative to the overall basis level of 1.0. The overall basis level was calculated as the weighted arithmetic mean of all normalized values from the DMSO control measurements in analogy to the calculations performed for the test-compounds. The corresponding combined standard deviation for the DMSO values amounts to less than 1·10^−2.

[2] = test system: HL-60 cells (human acute myeloid leukemia cells); assay: alamarBlue proliferation assay with HL-60 cells; settings: 120 h, 5 days, relative to DMSO baseline level of 1.0, read-out: AVEw, weighted arithmetic mean of normalized fluorescence intensity values (Activity Range), HL-60 proliferation
Procedure, shortened: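 HL-60 cells (1000/well, RPMI 1640 + 10% FBS) exposed to compound in 0.1% DMSO for 5 days, then alamarBlue fluorescence read (ex 560/em 590 nm). Signals normalized to six DMSO wells per plate (baseline 1.0); outliers removed by Peirce/Chauvenet; weighted mean with combined SD; inhibitor criterion judged at 20 μM reference concentration.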

[3] = test system: CAL-27 cells (human tongue squamous cell carcinoma cells); assay: alamarBlue proliferation assay with CAL-27 cells; settings: Homo sapiens, 120 h; for activity at 40 µM: relative to DMSO basis level 1.0, read-out: weighted arithmetic mean (AVEw) of normalized fluorescence intensity, activity range; for activity at 20 µM: 5 days, relative to DMSO baseline level of 1.0, read-out: AVEw, weighted arithmetic mean of normalized fluorescence intensity values (Activity Range), CAL-27 proliferation
Description: as §1, §2
CAL-27 cells were cultivated according to the protocol of the provider (but at 5% instead of 10% CO2) in DMEM medium (Fisherscientific, #11584456) containing 10% fetal bovine serum (Fisherscientific, #15517589).
as §3, with “CAL-27” for “TT”, “20” for “40”

[4] = test system: HPEKp cells (human epidermal keratinocyte progenitors, pooled); assay: alamarBlue proliferation assay with HPEKp cells; settings: 120 h, relative to DMSO basis level 1.0, read-out: weighted arithmetic mean (AVEw) of normalized fluorescence intensity, activity range
Description: as §1, §2
HPEKp cells were cultivated according to the protocol of the provider in CnT-Prime epithelial culture medium (CELLnTEC, #CnT-PR, a fully defined, low calcium formulation, completely free of animal or human-derived components) without addition of further components.
as §3, with “HPEKp” for “TT”, “10” for “40”

[5] = test system: Notch signaling (hNotch1ΔE, human Notch1 receptor) in HeLa cells; assay: Notch reporter assay (luciferase luminescence readout in transfected HeLa cells); settings: Homo sapiens, 20 hours, relative to DMSO baseline level of 1.0, read-out: AVEw, weighted arithmetic mean of double-normalized Notch-reporter luciferase luminescence values (Activity Range)
Procedure, shortened: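 HeLa cells were transiently transfected for 24 h with membrane-tethered constitutively active hNotch1ΔE, a CSL-promoter Firefly luciferase reporter and constitutive SV40-Renilla luciferase. Compounds were then applied at 10 μM (0.1% DMSO) for 20 h. Firefly/Renilla dual-luciferase ratios were normalized to DMSO control (baseline 1.0), outliers were excluded, and replicate values were averaged across ≥3 independent experiments.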

CCOC(=O)c1ccc(Oc2ccc(C3(C(F)(F)F)CC3)cc2Cl)cc1 [Compound 729, Ethyl 4-(2-chloro-4-(1-(trifluoromethyl)cyclopropyl)phenoxy)-benzoate] gave an activity at 40 µM [1] of 20 to 40%, an activity at 20 µM [2] of 40 to 60% and an activity at 40 µM [3] of 20 to 40%.

Molecule O=C(NO)c1ccc(Oc2ccc(C3(C(F)(F)F)CC3)cc2)c(F)c1 [Compound 768, 3-fluoro-N-hydroxy-4-(4-(1-(trifluoromethyl)cyclopropyl)phenoxy)benzamide] has an activity at 40 µM [1] of 0 to 20%, an activity at 20 µM [2] of 0 to 20% and an activity at 20 µM [3] of 20 to 40%. For the same molecule, the activity at 40 µM [3] was 20 to 40%.

For CNC(=O)c1ccc(Oc2ccc(C3C[C@@H]4CC[C@H]3C4)cc2)cc1 (stereo partly drawn) [Compound 210, 4-(4-((1S,4R)-bicyclo[2.2.1]heptan-2-yl)phenoxy)-N-methylbenzamide], the activity at 40 µM [1] was 60 to 70%, the activity at 20 µM [2] was 20 to 40% and the activity at 20 µM [3] was 70 to 80%. The activity at 40 µM [3] was 0 to 20%.

CCOC(=O)c1ccc(Oc2ccc(C3(C(F)(F)C(F)(F)F)CC3)cc2)cc1 [Compound 722] gave an activity at 10 µM [4] of 40 to 60%, an activity at 20 µM [2] of 40 to 60% and an activity at 40 µM [3] of 70 to 80%.

Work on CCC(C)(C)c1ccc(Oc2ccc(C(=O)N(C)C)cn2)cc1 [Compound 323, N,N-dimethyl-6-(4-(tert-pentyl)phenoxy)nicotinamide] yielded an activity at 10 µM [4] of 70 to 80%, an activity at 20 µM [2] of 40 to 60% and a fold induction at 10 µM [5] of 1.1 to 1.2.

CCOC(=O)c1ccc(Oc2ccc(C3(C(F)(F)F)CC3)cc2)cc1 [Compound 721, ethyl 4-(4-(1-(trifluoromethyl)cyclopropyl)phenoxy)benzoate] gave an activity at 10 µM [4] of 70 to 80%, an activity at 20 µM [2] of 40 to 60% and a fold induction at 10 µM [5] of 1.1 to 1.2.

For NC(=O)c1ccc(Oc2ccc(C34CC5CC(CC(C5)C3)C4)cc2)cc1 [Compound 161, 4-(4-((3r,5r,7r)-adamantan-1-yl)phenoxy)benzamide], the activity at 40 µM [1] was 40 to 60%, the activity at 20 µM [2] was 20 to 40% and the activity at 40 µM [3] was 20 to 40%.

In the case of O=C(O)c1cnc(Oc2ccc(C34CC5CC(CC(C5)C3)C4)cc2)c(F)c1 [Compound 440, 6-(4-((3r,5r,7r)-adamantan-1-yl)phenoxy)-5-fluoronicotinic acid], the activity at 10 µM [4] is reported as 20 to 40% and the activity at 20 µM [2] is reported as 70 to 80%.

With COC(=O)c1ccc(Oc2ccc(C34CC5CC(CC(C5)C3)C4)cc2)c(F)c1 [Compound 389, methyl 4-(4-((3r,5r,7r)-adamantan-1-yl)phenoxy)-3-fluorobenzoate] the activity at 10 µM [4] was 20 to 40% and the activity at 20 µM [2] was 40 to 60%.

With O=C(O)c1ccc(Oc2ccc(C3(C(F)(F)C(F)(F)F)CC3)cc2)nc1 [Compound 731] the activity at 10 µM [4] was 80 to 90% and the activity at 20 µM [2] was 80 to 90%.

For CN(C)C(=O)c1ccc(Oc2ccc(C3(C(F)(F)F)CC3)cc2Cl)nc1 [Compound 828, 6-(2-chloro-4-(1-(trifluoromethyl)cyclopropyl)phenoxy)-N,N-dimethylnicotinamide], the activity at 10 µM [4] was 70 to 80% and the activity at 20 µM [2] was 60 to 70%.

CCC(C)(C)c1ccc(Oc2ccc(C(=O)OC)cc2F)cc1 [Compound 374, methyl 3-fluoro-4-(4-(tert-pentyl)phenoxy)benzoate] showed an activity at 10 µM [4] of 80 to 90%, an activity at 20 µM [2] of 80 to 90% and a fold induction at 10 µM [5] of 1.1 to 1.2.

With O=C(O)c1ccc(Oc2ccc(C3C[C@@H]4CC[C@H]3C4)cc2)nc1 (stereo partly drawn) [Compound 086, 6-(4-((1S,4R)-bicyclo[2.2.1]heptan-2-yl)phenoxy)nicotinic acid] the activity at 10 µM [4] was 60 to 70% and the fold induction at 10 µM [5] was 1.1 to 1.2.

In the case of O=C(NO)c1ccc(Oc2ccc(C3(C(F)(F)F)CC3)cc2Cl)nc1 [Compound 810, 6-(2-chloro-4-(1-(trifluoromethyl)cyclopropyl)phenoxy)-N-hydroxynicotinamide], the activity at 10 µM [4] is reported as 0 to 20%, the activity at 20 µM [2] is reported as 0 to 20% and the activity at 20 µM [3] is reported as 0 to 20%.

CNC(=O)c1ccc(Oc2ccc(C3CCCCC3)cc2)nc1 [Compound 309, 6-(4-cyclohexylphenoxy)-N-methylnicotinamide] gave an activity at 40 µM [1] of 80 to 90%.

For O=C(NO)c1ccc(Oc2ccc(C3CC4CCC3CC4)cc2)cc1 (stereo not drawn) [Compound 185, 4-(4-((1s,4s)-bicyclo[2.2.2]octan-2-yl)phenoxy)-N-hydroxybenzamide], the activity at 10 µM [4] was 0 to 20%, the activity at 20 µM [2] was 0 to 20% and the activity at 20 µM [3] was 0 to 20%.

In the case of CN(C)C(=O)c1ccc(Oc2ccc(C3CC4CCC3CC4)cc2)cc1 (stereo not drawn) [Compound 237, 4-(4-((1s,4s)-bicyclo[2.2.2]octan-2-yl)phenoxy)-N,N-dimethylbenzamide], the activity at 40 µM [1] is reported as 40 to 60%, the activity at 20 µM [2] is reported as 20 to 40% and the activity at 20 µM [3] is reported as 40 to 60%. For the same molecule, the activity at 40 µM [3] was 20 to 40%.

CCOC(=O)c1ccc(Oc2ccc(C3(C(F)(F)F)CC3)cc2)nc1 [Compound 748, ethyl 6-(4-(1-(trifluoromethyl)cyclopropyl)phenoxy)nicotinate] showed an activity at 40 µM [1] of 70 to 80%.

Work on CNC(=O)c1ccc(Oc2ccc(C3(C(F)(F)F)CC3)cc2Cl)nc1 [Compound 819] yielded an activity at 10 µM [4] of 70 to 80% and an activity at 20 µM [2] of 80 to 90%.

For CCCCc1ccc(Oc2ccc(C(=O)NO)cc2)cc1 [Compound 167, 4-(4-butylphenoxy)-N-hydroxybenzamide], the activity at 40 µM [1] was 20 to 40%, the activity at 20 µM [2] was 40 to 60% and the activity at 20 µM [3] was 60 to 70%. The activity at 40 µM [3] was 0 to 20%.
